Assay results: patent US11427567B2, “Imidazolyl pyrimidinylamine compounds as CDK2 inhibitors” (Incyte Corporation, priority 2019, dated 2022)

Assays:
[1] = tested on: Rb phosphorylated on serine 780 in CCNE1 amplified COV318 cells; assay: CDK2 pRb (S780) HTRF cellular assay; format: cell-based; details: Homo sapiens, overnight treatment, read-out: IC50 in p-RB S780 HTRF cellular assay
Experimental: CDK2 pRb (5780) HTRF cellular assay enables the quantitative detection of Rb phosphorylated on […] in CCNE1 amplified COV318 cells. The assay comprised two antibodies: Europium cryptate labeled anti-Phospho-Rb […] antibody (donor) and d2 labeled anti-Rb antibody (acceptor). In brief, COV318 cells were seeded into the wells of 96-well plate at a density of 25,000 per well with 9-point, 3-fold serial diluted compounds and cultured overnight at 37 degree with 5% CO2. The final concentrations of compounds start from 3 μM. […] After 2h of incubation at room temperature, HTRF signals were measured on the PHERAstar microplate reader (BMG Labtech), using 340 nm as excitation wavelength, a 620 nm filter for the Europium donor fluorescence, and a 665-nm filter for the acceptor fluorescence detection. HTRF signals were calculated as the HTRF ratio (ratio of fluorescence measured at 665 nm and 620 nm)×10000.

[2] = tested on: CCNE1 amplified COV318 cells; assay: Cell cycle analysis by FACS after p16 knockdown and CDK2 inhibitor treatment; format: cell-based, human; details: 100 nM, 16 hours
Experimental: To confirm the role of p16 in CDK2-sensitivity of CCNE-amplified cells, COV318 cells were treated with control or p16-specific siRNA.
Human cyclin E1 (CCNE1) amplified ovarian cell lines OVCAR3, COV318, Fu-OV1, endometrial cell line KLE, gastric cell lines MKN1, AGS, NCIN87, and CCNE1 non-amplified ovarian cell lines COV504, OV56, Igrov1 were cultured in RPMI 1640 medium. The complete growth medium was supplemented with 10% FBS, 0.1 mM non-essential amino acids, 2 mM L-glutamine, 100 units/mL penicillin G and 100 μg/mL streptomycin in 37° C. humidified incubator and an atmosphere of 5% CO2 in air. Fu-OV1 line was purchased from Leibniz-Institute DSMZ—German Collection of Microorganisms and Cell Cultures; MKN1 was purchased from Japanese Cancer Research Resources Bank; and the rest of cell lines were purchased from American Type Culture Collection. For transfection, cells were seeded into 6-well for 24 hours and transiently transfected by Lipofectamine 2000 Reagent (Thermo Fisher, 11668027). […]
Bulk DNA was stained with DAPI. Compound-treated and DMSO treated control cells were acquired with CytoFlex (Beckman Coulter) and were analyzed using the FlowJo software. […]

[3] = biological target: CDK2/Cyclin E1 (Homo sapiens (Human), UniProt P24941); assay: CDK2/Cyclin E1 HTRF enzyme activity assay (Example A); format: biochemical; details: 1 mM ATP
Experimental: Assays were conducted in white 384-well polystyrene plates in a final reaction volume of 8 μL. […] HTRF signals were read after 1 hour at room temperature on a PHERAstar FS plate reader (BMG Labtech). Data was analyzed with IDBS XLFit and GraphPad Prism 5.0 software using a three or four parameter dose response curve to determine IC50 for each compound.

Row | Compound | IC50 [3] | also measured
1 | C[C@@]1(O)CCC[C@H]1n1c(=O)ccc2cnc(NC3CCN(S(C)(=O)=O)CC3)nc21 [Compound A, 8-((1R,2R)-2-hydroxy-2-methylcyclopentyl)-2-((1-(methylsulfonyl)piperidin-4-yl)amino)pyrido[2,3-d]pyrimidin-7(8H)-one] | – | IC50 [1]: 37 nM; Percentage of S phase cells ([2]; control siRNA-treated COV318 cells): significantly decreased; Percentage of S phase cells as compared to DMSO control ([2]; p16 knocked down COV318 cells): not significantly decreased
2 | Cn1cc(S(=O)(=O)N2CC[C@@H](Nc3ncc(C(F)(F)F)c(-c4cn(CC(C)(C)O)cn4)n3)[C@H](F)C2)cn1 [Example 336, 1-(4-(2-(((3R,4R)-3-Fluoro-1-((1-methyl-1H-pyrazol-4-yl)sulfonyl)piperidin-4-yl)amino)-5-(trifluoromethyl)pyrimidin-4-yl)-1H-imidazol-1-yl)-2-methylpropan-2-ol] | ≤ 50 nM | –
3 | CS(=O)(=O)N1CCC(Nc2ncc(C(F)(F)F)c(-c3cn(-c4c(F)cccc4C#N)cn3)n2)CC1 [Example 294, 3-Fluoro-2-(4-(2-((1-(methylsulfonyl)piperidin-4-yl)amino)-5-(trifluoromethyl)pyrimidin-4-yl)-1H-imidazol-1-yl)benzonitrile] | ≤ 50 nM | –
4 | C[C@@H]1CN(S(C)(=O)=O)CC[C@@H]1Nc1ncc(C(F)(F)F)c(-c2cn(-c3ccc(CN4CCC4)cc3Cl)cn2)n1 [Example 219, 4-(1-(4-(Azetidin-1-ylmethyl)-2-chloro-phenyl)-1H-imidazol-4-yl)-N-((3R,4S)-3-methyl-1-(methyl-sulfonyl)piperidin-4-yl)-5-(trifluoro-methyl)pyrimidin-2-amine] | ≤ 50 nM | –
5 | Cc1ccc(-n2cnc(-c3nc(N[C@H]4CCN(S(=O)(=O)c5ccn(C)n5)C[C@H]4C)ncc3C(F)(F)F)c2)c(C#N)n1 [Example 154, 6-Methyl-3-(4-(2-(((3R,4S)-3-methyl-1-((1-methyl-1H-pyrazol-3-yl)-sulfonyl)piperidin-4-yl)amino)-5-(trifluoromethyl)-pyrimidin-4-yl)-1H-imidazol-1-yl)picolinonitrile] | ≤ 50 nM | –
6 | CC1CN(Cc2ccc(-n3cnc(-c4nc(NC5CCN(S(C)(=O)=O)CC5)ncc4C(F)(F)F)c3)c(Cl)c2F)C1 [Example 270, 4-(1-(2-Chloro-3-fluoro-4-((3-methylazetidin-1-yl)methyl)phenyl)-1H-imidazol-4-yl)-N-(1-(methylsulfonyl)piperidin-4-yl)-5-(trifluoromethyl)pyrimidin-2-amine] | ≤ 50 nM | –
7 | Cc1cc(C#N)ccc1-n1cnc(-c2nc(NC3CCN(S(C)(=O)=O)CC3)ncc2C(F)(F)F)c1 [Example 35, 3-Methyl-4-(4-(2-((1-(methylsulfonyl)piperidin-4-yl)amino)-5-(trifluoromethyl)pyrimidin-4-yl)-1H-imidazol-1-yl)benzonitrile] | ≤ 50 nM | –
8 | Cc1nc(-c2nc(NC3CCN(S(C)(=O)=O)CC3)ncc2C(F)(F)F)cn1-c1ccc(C2CN(CC3(O)CC3)C2)cc1F [Example 422, 1-((3-(3-Fluoro-4-(2-methyl-4-(2-((1-(methylsulfonyl)piperidin-4-yl)amino)-5-(trifluoromethyl)pyrimidin-4-yl)-1H-imidazol-1-yl)phenyl)azetidin-1-yl)methyl)cyclopropan-1-ol] | ≤ 50 nM | –
9 | CC1(O)CN(CCc2cccc(-n3cnc(-c4nc(NC5CCN(S(C)(=O)=O)CC5)ncc4C(F)(F)F)c3)c2Cl)C1 [Example 372, 1-(2-Chloro-3-(4-(2-((1-(methylsulfonyl)piperidin-4-yl)amino)-5-(trifluoromethyl)pyrimi-din-4-yl)-1H-imidazol-1-yl)phenethyl)-3-methylazetidin-3-ol] | ≤ 50 nM | –
10 | CS(=O)(=O)N1CCC(Nc2ncc(C(F)(F)F)c(-c3cn(-c4cccc(CO)c4Cl)cn3)n2)CC1 [Example 84, (2-Chloro-3-(4-(2-((1-(methylsulfonyl)piperidin-4-yl)amino)-5-(trifluoromethyl)pyrimidin-4-yl)-1H-imidazol-1-yl)phenyl)methanol] | ≤ 50 nM | –
11 | CCN(C)Cc1ccc(-n2cnc(-c3nc(NC4CCN(S(C)(=O)=O)CC4)ncc3C(F)(F)F)c2)c(C(F)(F)F)c1 [Example 257, 4-(1-(4-((Ethyl(methyl)amino)methyl)-2-(trifluoromethyl)phenyl)-1H-imidazol-4-yl)-N-(1-(methylsulfonyl)piperidin-4-yl)-5-(trifluoromethyl)pyrimidin-2-amine] | ≤ 50 nM | –
12 | CS(=O)(=O)N1CCC(Nc2ncc(C(F)(F)F)c(-c3cn(-c4ccc(CN5CC6CCC5CO6)cc4Cl)cn3)n2)CC1 (stereo not drawn) [Example 216, 4-(1-(4-((2-Oxa-5-azabicyclo[2.2.2]-octan-5-yl)methyl)-2-chlorophenyl)-1H-imidazol-4-yl)-N-(1-(methylsulfonyl)-piperidin-4-yl)-5-(trifluoromethyl)-pyrimidin-2-amine] | ≤ 50 nM | –

Continued, in another order:

Row | IC50 [3] | Compound | also measured
13 | ≤ 50 nM | CCNCc1ccc(-n2cnc(-c3nc(NC4CCN(S(C)(=O)=O)CC4)ncc3C(F)(F)F)c2)c(Cl)c1 [Example 189, 4-(1-(2-Chloro-4-((ethylamino)methyl)-phenyl)-1H-imidazol-4-yl)-N-(1-(methyl-sulfonyl)piperidin-4-yl)-5-(trifluoro-methyl)pyrimidin-2-amine] | –
14 | ≤ 50 nM | Cc1nc(-c2nc(NC3CCN(S(C)(=O)=O)CC3)ncc2C(F)(F)F)cn1-c1ccc(N2CC[C@@H](N(C)C)C2)cc1F [Example 109, (R)-4-(1-(4-(3-(Dimethylamino)-pyrrolidin-1-yl)-2-fluorophenyl)-2-methyl-1H-imidazol-4-yl)-N-(1-(methyl-sulfonyl)piperidin-4-yl)-5-(trifluoro-methyl)pyrimidin-2-amine] | –
15 | ≤ 50 nM | Cc1nc(-c2nc(NC3CCN(S(C)(=O)=O)CC3)ncc2C(F)(F)F)cn1-c1ccc(CN2CCC2)cc1Cl [Example 284, 4-(1-(4-(Azetidin-1-ylmethyl)-2-chlorophenyl)-2-methyl-1H-imidazol-4-yl)-N-(1-(methylsulfonyl)piperidin-4-yl)-5-(trifluoromethyl)pyrimidin-2-amine] | –
16 | ≤ 50 nM | CCNCc1cccc(-n2cnc(-c3nc(NC4CCN(S(C)(=O)=O)CC4)ncc3C(F)(F)F)c2)c1Cl [Example 361, 4-(1-(2-Chloro-3-((ethylamino)methyl)phe-nyl)-1H-imidazol-4-yl)-N-(1-(methylsulfonyl)piperidin-4-yl)-5-(trifluoromethyl)pyrimi-din-2-amine] | –
17 | ≤ 50 nM | Cc1nc(-c2nc(NC3CCN(S(C)(=O)=O)CC3)ncc2C(F)(F)F)cn1-c1ccc(C2CN(C)C2)cc1F [Example 417, 4-(1-(2-Fluoro-4-(1-methylazetidin-3-yl)phenyl)-2-methyl-1H-imidazol-4-yl)-N-(1-(methylsulfonyl)piperidin-4-yl)-5-(trifluoromethyl)pyrimidin-2-amine] | –
18 | ≤ 50 nM | CS(=O)(=O)N1CCC(Nc2ncc(C(F)(F)F)c(-c3cn(-c4ccc(CNC5CC5)cc4C(F)(F)F)cn3)n2)CC1 [Example 256] | –
19 | ≤ 50 nM | CCNCc1cc(F)c(-n2cnc(-c3nc(NC4CCN(S(C)(=O)=O)CC4)ncc3C(F)(F)F)c2)c(Cl)c1 [Example 393, 4-(1-(2-Chloro-4-((ethylamino)methyl)-6-fluorophenyl)-1H-imdazol-4-yl)-N-(1-(methylsulfonyl)piperidin-4-yl)-5-(trifluoromethyl)pyrimidin-2-amine] | –
